Test results as given in PubChem BioAssay AID1996.
Converted amounts (≈) assume the structure as drawn.

Settings: buffer; pH 7.4; 200.0 µM

`Cc1ccc(CNC(=O)c2cncc(Br)c2)cc1` and `Cc1ccc(SCC(=O)NCCc2ccc(F)cc2)cc1` are within 1.5-fold of each other in solubility kinetic: 9.6 µg/mL (≈ 31.5 µM) for the first, 13.6 µg/mL (≈ 44.8 µM) for the second.

Going from `O=C(COc1ccccc1)Nc1nc2c(s1)CCCC2` to `Cc1ccnc2nc(C(=O)NCc3ccccc3)nn12`, the solubility kinetic rises from 3.7 µg/mL (≈ 12.8 µM) to > 40.1 µg/mL.

Compared with `O=C(Nc1ccc(C(=O)Nc2ccccc2Cl)cc1)c1cccnc1`, `O=C(Nc1cc(Cl)c(Cl)cc1Cl)c1cccnc1` is 2.7-fold higher in solubility kinetic: 2.3 µg/mL (≈ 6.54 µM) for the first, 6.1 µg/mL (≈ 20.2 µM) for the second.

Going from `Cc1cccc(OCC(=O)NCCCNC(=O)c2cccnc2)c1` to `Cc1cccc(NC(=O)CSc2cccc3cccnc23)c1`, the solubility kinetic falls from > 49.1 µg/mL to 21.3 µg/mL (≈ 69.1 µM).

Compared with `COc1ccc(-n2nc(C)c3sc(C)nc3c2=O)cc1`, `CNc1nc2c(C)cccn2c(=O)c1C=Nc1ccc(OC)cc1` is lower in solubility kinetic: > 43.1 µg/mL for the first, 0.9 µg/mL (≈ 2.79 µM) for the second.

`Nc1cc(S(=O)(=O)N2CCOCC2)ccc1N1CCOCC1` and `CC(=O)c1ccc(N2CCN(C(=O)c3cc(S(=O)(=O)N4CCOCC4)ccc3C)CC2)cc1` cannot be ordered by solubility kinetic: > 49.1 µg/mL for the first, > 70.7 µg/mL for the second.

`O[C@@H]1CN(Cc2ccccc2Cl)CC[C@H]1N1CCOCC1` and `O=C(Nc1ccccc1N1CCCC1)C1CCCO1` (stereo not given) cannot be ordered by solubility kinetic: 39.9 µg/mL (≈ 128 µM) for the first, > 39.1 µg/mL for the second.

`O=C(c1cc(-c2ccc(O)cc2)on1)N1CCOCC1` and `COc1ccccc1-n1cnnc1SCC(=O)N1CCOCC1` cannot be ordered by solubility kinetic: > 41.1 µg/mL for the first, > 50.2 µg/mL for the second.

Going from `N#CC1C=Cc2ccccc2N1C(=O)c1ccccc1` (stereo not given) to `O=C(NC1CCN(Cc2ccccc2)CC1)c1ccccc1Cl`, the solubility kinetic rises from 10.3 µg/mL (≈ 39.6 µM) to 35.7 µg/mL (≈ 109 µM) (3.5-fold).

Compared with `CCN(CC)CCOC(=O)c1ccc([N+](=O)[O-])cc1.Cl`, `CCCCC(=O)NC(=S)Nc1cc([N+](=O)[O-])ccc1OC` is lower in solubility kinetic: > 45.4 µg/mL for the first, 0.7 µg/mL (≈ 2.25 µM) for the second.

Compared with `Cc1cc(C(=O)OCC(=O)NCc2ccco2)c(C)o1`, `COC(=O)c1ccc(/C=C/C(=O)OCC(=O)Nc2cc(C)on2)cc1` is lower in solubility kinetic: > 41.6 µg/mL for the first, 3 µg/mL (≈ 8.71 µM) for the second.

First: Cc1cc(Nc2ccccc2Cl)c2ccccc2n1
Second: N#C/C(=C(/O)c1ccc(Cl)c([N+](=O)[O-])c1)c1nc2ccccc2[nH]1
The solubility kinetic of the first is higher: > 40.3 µg/mL for the first, 0.6 µg/mL (≈ 1.76 µM) for the second.

First: CC(C)(C)c1ccc(/C=C/C(=O)NC2CCS(=O)(=O)C2)cc1 (stereo not given)
Second: CNC(=O)C(C)N1c2cccc3cccc(c23)S1(=O)=O (stereo not given)
The solubility kinetic of the first is higher: > 48.2 µg/mL for the first, 34.6 µg/mL (≈ 119 µM) for the second.

First: Cc1ccc(C(=O)NCC(=O)NCc2ccccc2F)s1
Second: CCNC(=S)Nc1ccc(Cc2nc3ccccc3[nH]2)cc1
The solubility kinetic of the first is higher: > 46 µg/mL for the first, 36 µg/mL (≈ 116 µM) for the second.

`CCC(/C=N/NC(=O)c1ccccc1F)CC` and `CCCCC(=O)Nc1cccc(C(C)O)c1` (stereo not given) cannot be ordered by solubility kinetic: > 35.4 µg/mL for the first, > 33.2 µg/mL for the second.

Compared with `O=C(CCCc1ccccc1)NC12CC3CC(CC(C3)C1)C2`, `c1ccc(CCCc2nc(-c3cccnc3)no2)cc1` is 2.8-fold higher in solubility kinetic: 11 µg/mL (≈ 37 µM) for the first, 30.5 µg/mL (≈ 115 µM) for the second.

Going from `O=C(Nc1ccc(C2CC2(Cl)Cl)cc1)c1cccc([N+](=O)[O-])c1` (stereo not given) to `N/C(=N/S(=O)(=O)c1ccccc1)c1cccc([N+](=O)[O-])c1`, the solubility kinetic rises from < 0.4 µg/mL to > 45.8 µg/mL.

Compared with `COc1ccc(CCNC(=O)C(C)SCC(=O)Nc2ccc(F)cc2)cc1` (stereo not given), `COc1cccc(NC(=O)Cn2cc(C=O)c3ccccc32)c1` is lower in solubility kinetic: > 58.6 µg/mL for the first, 0.5 µg/mL (≈ 1.62 µM) for the second.

`Cc1cc(C(=O)N2CCc3ccccc3C2)c(C)o1` and `Cc1ccccc1OCc1ccc(C(=O)N2CC(C)OC(C)C2)o1` (stereo not given) cannot be ordered by solubility kinetic: > 38.3 µg/mL for the first, 47.8 µg/mL (≈ 145 µM) for the second.

`O=C(Nc1ccncc1)c1ccc(Br)cc1` and `COC(=O)C1CN(C(=O)c2ccc(OC(F)F)cc2)c2ccccc2O1` (stereo not given) cannot be ordered by solubility kinetic: > 41.6 µg/mL for the first, 43.1 µg/mL (≈ 119 µM) for the second.

Going from `CC(C)(C)NC(=O)C(OC(=O)c1cccs1)c1ccccc1` (stereo not given) to `CCC(CC)C(=O)N1CC(=O)Nc2ccc(F)cc2C1c1ccccc1` (stereo not given), the solubility kinetic rises from 3.3 µg/mL (≈ 10.4 µM) to 51.9 µg/mL (≈ 146 µM) (16-fold).

First: CCCCn1c(O)c(C(C)=NCc2ccco2)c(=O)[nH]c1=O
Second: COC(=O)CC1C(=O)NCCN1C(=O)c1sc2ccccc2c1Cl (stereo not given)
The solubility kinetic of the first is lower: 9.1 µg/mL (≈ 29.8 µM) for the first, > 55 µg/mL for the second.

First: COC(=O)c1cc(C(=O)NC(C)C2CC3CCC2C3)cc([N+](=O)[O-])c1 (stereo not given)
Second: O=C(COC(=O)C1CCC1)NCc1ccc(Cl)cc1Cl
The solubility kinetic of the first is lower: 11 µg/mL (≈ 31.8 µM) for the first, > 47.4 µg/mL for the second.

Compared with `CC1CCC2(CC1)NC(=O)N(CC(=O)Nc1ccc3c(c1)OCO3)C2=O` (stereo not given), `CC(=O)N1CCN(C(=O)CNC(=O)c2ccc(Br)o2)CC1` is higher in solubility kinetic: 15.6 µg/mL (≈ 43.4 µM) for the first, > 53.7 µg/mL for the second.

Going from `C=CCN(CC=C)C(=S)NC(=O)c1ccc(OC)cc1` to `COc1ccc(CNc2ncccc2[N+](=O)[O-])cc1`, the solubility kinetic falls from > 43.6 µg/mL to 17 µg/mL (≈ 65.6 µM).

First: N#CCNc1ccc([N+](=O)[O-])cc1C#N
Second: O=[N+]([O-])c1ccc(Sc2cc[n+]([O-])c3ccccc23)c([N+](=O)[O-])c1
The solubility kinetic of the first is 6.6-fold higher: 30.3 µg/mL (≈ 150 µM) for the first, 4.6 µg/mL (≈ 13.4 µM) for the second.

Going from `CC1CCCC(C)N1C(=O)COC(=O)CCC(=O)c1cccs1` (stereo not given) to `COc1ccc(C(=O)COC(=O)c2c(C)noc2C)cc1Cl`, the solubility kinetic falls from > 50.6 µg/mL to 2.9 µg/mL (≈ 8.96 µM).

First: O=C(c1ccc(F)cc1)N1CCN(c2ccc([N+](=O)[O-])cc2-n2cccc2)CC1
Second: Cc1ccc(/C(O)=C/c2nc3cc(C)ccc3oc2=O)cc1
The solubility kinetic of the first is 3.6-fold lower: 3.3 µg/mL (≈ 8.37 µM) for the first, 12 µg/mL (≈ 40.9 µM) for the second.

Going from `COc1cc(SC)ccc1C(=O)Nc1nc(C)cc(C)n1` to `CC1(C)Cc2ccccc2-c2nc3n(c(=O)c21)CCCS3`, the solubility kinetic falls from 40.7 µg/mL (≈ 134 µM) to 0.9 µg/mL (≈ 3.02 µM) (45-fold).

Going from `O=S(=O)(c1ccc2[nH]c3c(c2c1)CCCC3)N1CCCCC1` to `N[C@H]1CONC1=O`, the solubility kinetic rises from 12.3 µg/mL (≈ 38.6 µM) to > 15.3 µg/mL.
